Like-named read-outs stand apart in the source and are kept apart here. Bounds are passed on as bounds.

For test [1], the system named is Phosphorylated Ribosomal Protein S6 (RPS6) in THP-1 cells. Put plainly: THP-1 RPS6 ELISA Assay. In kind it is cell-based, Human. The settings on record: serum starved, 2 hours compound, 10 nM MCP-1 for 15 minutes, Phospho-RPS6 ELISA, read-out: PI3Kγ_THP1_RPS6_ELISA IC50. The procedure: Example A. THP-1 RPS6 ELISA Assay
To measure the Phosphorylated Ribosomal Protein S6 (RPS6) in cell lysates, THP-1 cells (Human Acute Monocytic Leukemia) are purchased from ATCC (Manassas, VA) and maintained in RPMI with 10% FBS (Gibco/Life Technologies, Carlsbad, CA). For the assay, THP-1 cells are serum starved overnight in RPMI, then plated in RPMI (2×10^5 cells/well in 90 μL) into 96-well flat-bottom tissue culture treated plates (Corning, Corning, NY), in the presence or absence of a concentration range of test compounds. Covered plates are incubated for 2 hours at 37° C., 5% CO2 then treated with or without 10 nM MCP-1(MYBioSource, San Diego, CA) for 15 minutes at 37° C., 5% CO2. Plates are centrifuged at 1600 RPM and supernatants are removed. Cells are lysed in Lysis Buffer (Cell Signaling, Danvers, MA) with Protease Inhibitor (Calbiochem/EMD, Germany), PMSF (Sigma, St Louis MO), HALTS (Thermo Fisher, Rockford, IL) for 30 min on wet ice. Cell lysates are frozen at −80° C. before testing. The lysates are tested in the Human/Mouse/Rat Phospho-RPS6 ELISA (R&D Systems, Inc. Minn, MN). The plate is measured using a microplate reader (SpectraMax M5—Molecular Devices, LLC Sunnyvale, CA) set to 450 nm with a wavelength correction of 540. IC50 determination is performed by fitting the curve of inhibitor percent inhibition versus the log of the inhibitor concentration using the GraphPad Prism 5.0 software.

Test [2] has as its target PI3Kδ (p110δ/p85α) Recombinant Human Protein (Homo sapiens (Human), UniProt O00329). As to the kind of experiment: PI3Kδ Scintillation Proximity Assay. The class given is biochemical. The settings on record: 20 μM PIP2, 2 μM ATP, SPA. The text has this: Example C. PI3Kδ Scintillation Proximity Assay Materials: [γ-^33P]ATP (10 mCi/mL) and Wheat Germ Agglutinin (WGA) YSi SPA Scintillation Beads was purchased from Perkin Elmer (Waltham, MA). Lipid kinase substrate, D-myo-Phosphatidylinositol 4,5-bisphosphate (PtdIns(4,5)P2)D (+)-sn-1,2-di-O-octanoylglyceryl, 3-O-phospho linked (PIP2), CAS 204858-53-7, was purchased from Echelon Biosciences (Salt Lake City, UT). PI3Kδ (p110δ/p85α) Recombinant Human Protein was purchased from Eurofins (St Charles, MO). ATP, MgCl2, DTT, EDTA, MOPS and CHAPS were purchased from Sigma Aldrich (St. Louis, MO). The kinase reaction was conducted in polystyrene 384-well Greiner Bio-one white plate from Thermo Fisher Scientific in a final volume of 25 μL. Inhibitors were first diluted serially in DMSO and added to the plate wells before the addition of other reaction components. The final concentration of DMSO in the assay was 2%. The PI3Kδ assay was carried out at room temperature in 20 mM MOPS, pH 6.7, 10 mM MgCl2, 5 mM DTT and CHAPS 0.03%. Reactions were initiated by the addition of ATP, the final reaction mixture consisted of 20 μM PIP2, 2 μM ATP, 0.5 μCi [γ-^33P] ATP, 3.4 nM PI3Kδ. Reactions were incubated for 120 min and terminated by the addition of 40 μL SPA beads suspended in quench buffer: 163 mM potassium phosphate pH 7.8, 20% glycerol, 25 mM EDTA. The final concentration of SPA beads is 1.0 mg/mL. After the plate sealing, plates were shaken overnight at room temperature and centrifuged at 1500 rpm for 10 min, the radioactivity of the product was determined by scintillation counting on Topcount (PerkinElmer). IC50 determination was performed by fitting the curve of percent of the solvent control activity versus the log of the inhibitor concentration using the GraphPad Prism 6.0 software.

Test [3] has as its target PI3Kγ (p110γ) Recombinant Human Protein (Homo sapiens (Human), UniProt P48736). As to the kind of experiment: PI3K-γ Scintillation Proximity Assay. The class given is biochemical. The settings on record: 20 μM PIP2, 2 μM ATP, SPA. The text has this: Example B. PI3K-γ Scintillation Proximity Assay Materials: [γ-^33P]ATP (10 mCi/mL) and Wheat Germ Agglutinin (WGA) YSi SPA Scintillation Beads was purchased from Perkin Elmer (Waltham, MA). Lipid kinase substrate, D-myo-Phosphatidylinositol 4,5-bisphosphate (PtdIns(4,5)P2)D (+)-sn-1,2-di-O-octanoylglyceryl, 3-O-phospho linked (PIP2), CAS 204858-53-7, was purchased from Echelon Biosciences (Salt Lake City, UT). PI3Kγ (p110γ) Recombinant Human Protein was purchased from Life technology (Grand Island, NY). ATP, MgCl2, DTT, EDTA, MOPS and CHAPS were purchased from Sigma Aldrich (St. Louis, MO). The kinase reaction was conducted in polystyrene 384-well Greiner Bio-one white plate from Thermo Fisher Scientific in a final volume of 25 μL. Inhibitors were first diluted serially in DMSO and added to the plate wells before the addition of other reaction components. The final concentration of DMSO in the assay was 2%. The PI3Kγ assay was carried out at room temperature in 20 mM MOPS, pH 6.7, 10 mM MgCl2, 5 mM DTT and CHAPS 0.03%. Reactions were initiated by the addition of ATP, the final reaction mixture consisted of 20 μM PIP2, 2 μM ATP, 0.5 μCi [γ-^33P] ATP, 13 nM PI3Kγ. Reactions were incubated for 120 min and terminated by the addition of 40 μL SPA beads suspended in quench buffer: 163 mM potassium phosphate pH 7.8, 20% glycerol, 25 mM EDTA. The final concentration of SPA beads is 1.0 mg/mL. After the plate sealing, plates were shaken overnight at room temperature and centrifuged at 1500 rpm for 10 min, the radioactivity of the product was determined by scintillation counting on Topcount (Perkin-Elmer). IC50 determination was performed by fitting the curve of percent of the solvent control activity versus the log of the inhibitor concentration using the GraphPad Prism 6.0 software.

PI3Kδ (p110δ/p85α) Recombinant Human Protein, sequence (O00329 whole entry): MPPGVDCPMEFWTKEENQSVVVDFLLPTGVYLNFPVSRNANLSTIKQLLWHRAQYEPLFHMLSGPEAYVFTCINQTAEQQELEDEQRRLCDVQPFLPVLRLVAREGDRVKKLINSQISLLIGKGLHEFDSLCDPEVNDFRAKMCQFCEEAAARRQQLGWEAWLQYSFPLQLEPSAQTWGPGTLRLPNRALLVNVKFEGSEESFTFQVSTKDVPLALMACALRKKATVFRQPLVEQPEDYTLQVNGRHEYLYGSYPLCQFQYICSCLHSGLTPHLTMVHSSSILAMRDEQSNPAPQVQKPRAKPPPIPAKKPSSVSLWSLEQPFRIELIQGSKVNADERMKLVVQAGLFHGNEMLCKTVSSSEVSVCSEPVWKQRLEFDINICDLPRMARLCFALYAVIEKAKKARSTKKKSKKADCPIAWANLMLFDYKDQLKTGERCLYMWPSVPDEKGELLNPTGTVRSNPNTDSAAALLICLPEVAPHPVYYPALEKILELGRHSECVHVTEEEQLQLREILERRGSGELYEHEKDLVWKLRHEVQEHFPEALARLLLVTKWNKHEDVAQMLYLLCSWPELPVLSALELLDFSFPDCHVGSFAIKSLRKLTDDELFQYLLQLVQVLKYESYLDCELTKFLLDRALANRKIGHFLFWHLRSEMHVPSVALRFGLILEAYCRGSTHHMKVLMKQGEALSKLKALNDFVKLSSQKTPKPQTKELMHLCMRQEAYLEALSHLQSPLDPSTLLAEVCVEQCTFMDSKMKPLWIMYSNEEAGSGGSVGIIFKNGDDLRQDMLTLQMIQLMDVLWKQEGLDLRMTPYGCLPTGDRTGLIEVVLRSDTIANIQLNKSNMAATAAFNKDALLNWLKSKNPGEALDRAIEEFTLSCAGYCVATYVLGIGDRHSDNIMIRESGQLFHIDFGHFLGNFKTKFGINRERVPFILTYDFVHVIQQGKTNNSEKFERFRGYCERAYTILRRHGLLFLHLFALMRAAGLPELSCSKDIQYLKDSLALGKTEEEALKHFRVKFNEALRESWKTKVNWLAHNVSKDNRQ
PI3Kδ (p110δ/p85α) Recombinant Human Protein, sequence (P27986 whole entry partner): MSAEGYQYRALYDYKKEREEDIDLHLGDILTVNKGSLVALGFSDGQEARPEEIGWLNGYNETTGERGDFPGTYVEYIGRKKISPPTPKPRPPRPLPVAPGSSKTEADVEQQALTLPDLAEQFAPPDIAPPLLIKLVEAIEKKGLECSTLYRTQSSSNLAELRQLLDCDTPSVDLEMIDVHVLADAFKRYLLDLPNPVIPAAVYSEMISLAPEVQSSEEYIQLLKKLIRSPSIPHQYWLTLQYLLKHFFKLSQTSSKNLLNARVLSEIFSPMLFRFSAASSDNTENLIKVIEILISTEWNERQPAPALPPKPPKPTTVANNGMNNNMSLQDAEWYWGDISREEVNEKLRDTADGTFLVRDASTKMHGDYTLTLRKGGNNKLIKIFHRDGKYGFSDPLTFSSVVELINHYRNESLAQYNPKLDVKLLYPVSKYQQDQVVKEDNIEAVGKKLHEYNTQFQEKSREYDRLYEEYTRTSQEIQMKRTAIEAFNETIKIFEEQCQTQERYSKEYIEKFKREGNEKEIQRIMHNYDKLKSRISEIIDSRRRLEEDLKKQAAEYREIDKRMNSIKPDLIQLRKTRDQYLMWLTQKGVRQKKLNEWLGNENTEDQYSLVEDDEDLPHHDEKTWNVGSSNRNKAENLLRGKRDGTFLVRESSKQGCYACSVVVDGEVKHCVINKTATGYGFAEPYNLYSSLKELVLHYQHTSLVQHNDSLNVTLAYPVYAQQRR
PI3Kγ (p110γ) Recombinant Human Protein, sequence (P48736 whole entry): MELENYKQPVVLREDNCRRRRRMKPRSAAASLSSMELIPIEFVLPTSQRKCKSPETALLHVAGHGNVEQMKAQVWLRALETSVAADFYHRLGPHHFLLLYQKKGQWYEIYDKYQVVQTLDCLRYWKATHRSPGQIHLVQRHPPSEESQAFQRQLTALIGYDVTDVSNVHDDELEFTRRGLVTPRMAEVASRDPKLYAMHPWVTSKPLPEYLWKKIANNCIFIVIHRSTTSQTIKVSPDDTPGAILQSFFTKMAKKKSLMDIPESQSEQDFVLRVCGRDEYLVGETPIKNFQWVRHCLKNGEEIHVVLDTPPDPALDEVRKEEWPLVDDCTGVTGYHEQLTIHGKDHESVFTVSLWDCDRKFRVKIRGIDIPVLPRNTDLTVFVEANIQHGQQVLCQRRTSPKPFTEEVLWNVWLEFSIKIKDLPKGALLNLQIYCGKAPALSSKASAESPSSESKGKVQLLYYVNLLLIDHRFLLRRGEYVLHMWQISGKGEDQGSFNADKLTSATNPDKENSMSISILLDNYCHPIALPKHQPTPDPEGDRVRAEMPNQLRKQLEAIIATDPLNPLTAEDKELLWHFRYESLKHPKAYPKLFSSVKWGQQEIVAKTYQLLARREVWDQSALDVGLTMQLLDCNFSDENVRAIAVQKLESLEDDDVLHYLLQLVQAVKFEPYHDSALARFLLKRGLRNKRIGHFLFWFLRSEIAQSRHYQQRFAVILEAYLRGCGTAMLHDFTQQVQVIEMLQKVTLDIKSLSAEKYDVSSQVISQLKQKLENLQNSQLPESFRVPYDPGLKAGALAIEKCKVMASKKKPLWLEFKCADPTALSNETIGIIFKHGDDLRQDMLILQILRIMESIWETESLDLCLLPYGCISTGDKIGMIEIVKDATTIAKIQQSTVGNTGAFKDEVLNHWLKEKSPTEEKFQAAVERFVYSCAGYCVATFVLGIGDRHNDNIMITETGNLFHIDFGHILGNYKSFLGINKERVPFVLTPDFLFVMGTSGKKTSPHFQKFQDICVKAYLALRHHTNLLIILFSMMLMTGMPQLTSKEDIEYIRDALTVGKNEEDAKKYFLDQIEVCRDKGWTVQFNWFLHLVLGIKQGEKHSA

`Cc1ccc(C(O)(CO)C(F)(F)F)cc1-c1cnc(N)c(-n2cncn2)n1` (single isomer, unassigned) [Example 15, 2-(3-(5-Amino-6-(1H-1,2,4-triazol-1-yl)pyrazin-2-yl)-4-methylphenyl)-3,3,3-trifluoropropane-1,2-diol]: the IC50 in test [1] (Homo sapiens) is 100 to 500 nM; in test [2], not above 100 nM; in test [3], not above 100 nM.

For the molecule `Cc1ccc(C(O)(CO)C(F)(F)F)cc1-c1cnc(N)c(-n2nccn2)n1` (stereo not shown) [Example 14, 2-(3-(5-Amino-6-(1H-1,2,3-triazol-2-yl)pyrazin-2-yl)-4-methylphenyl)-3,3,3-trifluoropropane-1,2-diol], the values for the IC50 in test [1], in test [2] and in test [3] were less than 100 nM, not above 100 nM and not above 100 nM, respectively.

For the molecule `Cc1ccc(C(O)(CO)C(F)(F)F)cc1-c1cnc(N)c(C2CN(S(=O)(=O)c3ccn(C)n3)C2)n1` (stereo not shown) [Example 23, 2-(3-(5-Amino-6-(1-((1-methyl-1H-pyrazol-3-yl)sulfonyl)azetidin-3-yl)pyrazin-2-yl)-4-methylphenyl)-3,3,3-trifluoropropane-1,2-diol], the IC50 in test [1] (Homo sapiens) and in test [2] was 100 to 500 nM in each case.

`Cc1ccc([C@](O)(CO)C(F)F)cc1-c1cnc(N)c(C(=O)N2CCC[C@@H]2CO)n1` [Example 45, (3-Amino-6-(5-((S)-1,1-difluoro-2,3-dihydroxypropan-2-yl)-2-methylphenyl)pyrazin-2-yl)((R)-2-(hydroxymethyl)pyrrolidin-1-yl)methanone]: the values for the IC50 in test [1] and in test [2] were 100 to 500 nM and 500 to 2000 nM, respectively.
